Measurements taken from patent US20260076948A1, “TREATMENT OF DIABETIC RETINOPATHY USING ENDOTHELIN RECEPTOR ANTAGONISTS” (Perfuse Therapeutics, Inc., priority 2019, published 2026).
“Also recorded” adds a separate entry of the source.

Tests used:
[1] = target: T1, ETA (Homo sapiens, UniProt P25101); experiment: Functional potency for ETA receptor; assay type: biochemical
T1 sequence (P25101 21-427): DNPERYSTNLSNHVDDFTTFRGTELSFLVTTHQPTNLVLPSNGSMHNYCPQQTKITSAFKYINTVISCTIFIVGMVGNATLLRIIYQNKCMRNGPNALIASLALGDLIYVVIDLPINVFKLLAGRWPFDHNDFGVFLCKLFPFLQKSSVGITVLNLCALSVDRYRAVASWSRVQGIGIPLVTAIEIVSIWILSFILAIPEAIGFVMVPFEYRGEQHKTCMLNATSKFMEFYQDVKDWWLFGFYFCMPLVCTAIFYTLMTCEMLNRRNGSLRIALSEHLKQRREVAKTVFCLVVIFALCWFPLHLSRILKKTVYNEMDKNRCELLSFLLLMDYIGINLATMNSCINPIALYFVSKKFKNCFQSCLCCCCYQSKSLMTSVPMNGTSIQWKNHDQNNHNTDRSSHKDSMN
Description: (§1) In the above table, the physicochemical data, e.g., solubility, were obtained following standard protocols known in the field (see, e.g., Reis et al., Mini Rev Med Chem., 2010, 10(11):1071-6; Avdeef et al., Expert Opin Drug Metab Toxicol., 2005, 1(2):325-42; Bharate et al., Comb Chem High Throughput Screen., 2016, 19(6):461-9; and Jain et al., J Pharm Biomed Anal., 2013, 86:11-35.); and the biochemical data, i.e., potency for ETA/ETB, were obtained following the protocols known in the field (see, e.g., Kirkby et al., Br J Pharmacol., 2008, 153(6):1105-19; and Maguire et al., Br J Pharmacol., 2014, 171(24):5555-72.).

[2] = Solubility (pH 2, pH 7, ethyl acetate); assay type: physicochemical
Description: as §1

[3] = Stability in solid state; assay type: physicochemical; conditions: 2 h@125° C.
Description: as §1

[4] = Permeability (PAMPA); assay type: in vitro ADME; conditions: PAMPA log Pe and PSA
Description: as §1

[5] = tested on: Morrison's rat model of glaucoma (elevated IOP); experiment: Morrison's rat model of glaucoma (RGC counts, PERG); assay type: in vivo, Brown Norway rats; conditions: topical eye drops 100 μg per dose, five days a week, four weeks
Description: Adult male and female retired breeder Brown Norway rats (approximate age groups of 8 to 11 months) were obtained from Envigo (Indianapolis, IN). Baseline IOP measurements and pattern electroretinogram (PERG) amplitudes were collected prior to the surgery for elevation of IOP (to ensure that the IOP and PERG amplitudes were in the expected range of values). IOP was elevated in one eye (left eye) of the rats, while the corresponding right eyes served as contralateral controls. The Morrison method to elevate IOP in rats was carried out by injection of 50 μL. of hypertonic saline through the episcleral veins to sclerose the trabecular meshwork. IOP was measured twice a week throughout the entire duration of the experiment. […] After detecting an elevation of IOP for two consecutive days, topical administration of eye drops (20 μL (100 μg) per dose of the tested compounds in the IOP elevated eye) was commenced and carried out for five days a week for a total of four weeks. In the 4th week of treatment, PERG analysis was carried out and rats were sacrificed by an overdose of pentobarbital (Fatal-Plus). Aqueous humor was collected from the rat eyes, frozen and shipped for analysis. Retinal flat mounts were prepared, immunostained with the RGC marker, Brn3a antibody and surviving RGCs were counted in two eccentricities (central and peripheral).
For this study, the Morrison's model was used to induce ocular hypertension in adult male retired breeder Brown Norway rats as previously described by Morrison et al., (Morrison J C, Moore C G, Deppmeier L M, Gold B G, Meshul C K, Johnson E C. A rat model of chronic pressure-induced optic nerve damage. Exp Eye Res. 1997; 64(1):85-96).
The immunostained retinal flat mounts were obtained to measure the retinal ganglion cell (RGC) counts. To obtain immunostained retinal flat mounts, the animals were euthanized after the treatments and then their eyes were enucleated. The eye cups were fixed overnight at 4° C. in 4% paraformaldehyde (PFA) and retinal flat mounts were prepared for collecting images. The retinal ganglion cell (RGC) counting was conducted using the images of immunostained retinal flat mounts. The images were uploaded to ImageJ, a photo editor designed for biology research (Rasband, 1997-2018) and the labeled retinal ganglion cells were counted manually in two eccentricities (central and peripheral).
Pattern ERG (PERG) was used to assess the RGC function. […] Briefly, PERG signals were acquired from a DTL-plus electrode placed on the lower part of the corneal surface and the PERG waves were analyzed using the EMWIN software (LKC). The difference between the amplitude of the major positive (P1) and negative (N2) waves were calculated to decipher the PERG amplitude.

[6] = Pharmacokinetics after topical or oral administration in the rat; assay type: in vivo, Brown Norway rats
Experimental: After the administrations, the animals (N=2) were euthanized at different time points (e.g. 4 and 8 hours) and tissues were collected for analysis. List of tissues collected include plasma, retina/retinal pigment epithelium (RPE)/choroid, vitreous humor and aqueous humor.

[7] = tested on: ETA/ETB receptor; conditions: background statement; cited from earlier work

Functional potency for ETA and ETB receptors, rating in words [1]: High potency | Specificity ETA versus ETB, rating in words ([1]; ETA vs ETB): Low specificity | Solubility in Ethyl Acetate, rating in words ([2]; ethyl acetate): Good | Solubility at pH 2, comparison in words ([2]; pH 2): superior to that of Edonentan | Stability in Solid State, in words [3]: unstable | Stability in Solid State, remaining [3]: about 87% remaining/ | Permeability, rating in words [4]: Mid-High | Detection in the retina/RPE/choroid after oral administration ([6]; oral, 50 mg/kg as printed): detectable
SMILES: CCCCCS(=O)(=O)N(CCC)CCN1C[C@H](c2ccc3c(c2)OCO3)[C@@H](C(=O)O)[C@@H]1c1ccc(OC)c(F)c1 [A-182086, (2R,3R,4S)-4-(2H-1,3-benzodioxol-5-yl)-2-(3-fluoro-4-methoxyphenyl)-1-[2-(N-propylpentane-1-sulfonamido)ethyl]pyrrolidine-3-carboxylic acid]
Pattern electroretinogram (PERG) changes, RGC function [5]: maintained RGC function | Retinal ganglion cell (RGC) counts in the peripheral retina [5]: prevented RGC loss | Ocular exposure after topical administration (retina/RPE/choroid, aqueous humor, vitreous humor) ([6]; eye drop 100 μg, 4 and 8 hours): detected; also recorded: permeate through cornea/sclera and achieve retina exposure | Endothelin receptor antagonism, description in words [7]: potent dual ETA/ETB receptor antagonist
